According to PubChem BioAssay (NCI):
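Cells were grown in 96-well plates and exposed to each compound for 48 hours at five concentrations; endpoints were interpolated linearly between bracketing concentrations, or set to the highest concentration if not reached. TGI marks complete inhibition of growth.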

Experiments:
Test in all cases: NCI anticancer screen, dose series, 48 h
TK-10 renal = system: TK-10 renal
NCI-H460 lung = system: NCI-H460 lung
SR leukemia = system: SR leukemia
HCT-116 colon = system: HCT-116 colon
UO-31 renal = system: UO-31 renal
SNB-19 CNS = system: SNB-19 CNS
HCT-15 colon = system: HCT-15 colon
HS 578T breast = system: HS 578T breast
MDA-N = system: MDA-N
DU-145 prostate = system: DU-145 prostate
SK-MEL-2 melanoma = system: SK-MEL-2 melanoma
MCF7 breast = system: MCF7 breast
OVCAR-8 ovarian = system: OVCAR-8 ovarian
M14 melanoma = system: M14 melanoma
SK-OV-3 ovarian = system: SK-OV-3 ovarian
KM12 colon = system: KM12 colon
A498 renal = system: A498 renal
PC-3 prostate = system: PC-3 prostate
OVCAR-5 ovarian = system: OVCAR-5 ovarian
MDA-MB-231 breast = system: MDA-MB-231 breast
SW-620 colon = system: SW-620 colon
UACC-62 melanoma = system: UACC-62 melanoma
SNB-75 CNS = system: SNB-75 CNS
SK-MEL-28 melanoma = system: SK-MEL-28 melanoma
SF-268 CNS = system: SF-268 CNS
A549 NSCLC = system: A549 NSCLC
786-0 renal = system: 786-0 renal
U251 CNS = system: U251 CNS
NCI-H226 lung = system: NCI-H226 lung
CAKI-1 renal = system: CAKI-1 renal
MALME-3M melanoma = system: MALME-3M melanoma
MDA-MB-435 = system: MDA-MB-435
RPMI-8226 leukemia = system: RPMI-8226 leukemia
LOX IMVI melanoma = system: LOX IMVI melanoma
RXF 393 renal = system: RXF 393 renal
ACHN renal = system: ACHN renal
K-562 leukemia = system: K-562 leukemia
NCI/ADR-RES ovarian = system: NCI/ADR-RES ovarian
NCI-H23 lung = system: NCI-H23 lung
SF-539 CNS = system: SF-539 CNS
T-47D breast = system: T-47D breast
OVCAR-4 ovarian = system: OVCAR-4 ovarian
OVCAR-3 ovarian = system: OVCAR-3 ovarian
SK-MEL-5 melanoma = system: SK-MEL-5 melanoma
EKVX NSCLC = system: EKVX NSCLC
HL-60(TB) leukemia = system: HL-60(TB) leukemia
SF-295 CNS = system: SF-295 CNS
SN12C renal = system: SN12C renal
COLO 205 colon = system: COLO 205 colon
CCRF-CEM leukemia = system: CCRF-CEM leukemia
IGROV1 ovarian = system: IGROV1 ovarian
HT29 colon = system: HT29 colon
HOP-62 NSCLC = system: HOP-62 NSCLC
MOLT-4 leukemia = system: MOLT-4 leukemia
UACC-257 melanoma = system: UACC-257 melanoma
BT-549 breast = system: BT-549 breast
NCI-H522 lung = system: NCI-H522 lung
HOP-92 NSCLC = system: HOP-92 NSCLC

Compound `CC(=O)OC1CCC2(C)C(CCC3C4CC=C(C5(C)OCCO5)C4(C)CCC32)C1` (centres undefined) has a TGI (TK-10 renal) greater than 100 µM, a TGI (NCI-H460 lung) of 47.8 µM and a TGI (SR leukemia) of 54.2 µM. For the same compound, the TGI (HCT-116 colon) was 45.3 µM, the TGI (UO-31 renal) was 62 µM and the TGI (SNB-19 CNS) was greater than 100 µM. The TGI (HCT-15 colon) was 80.6 µM, the TGI (HS 578T breast) was 60.1 µM and the TGI (MDA-N) was 44 µM. It also gave a TGI (DU-145 prostate) greater than 100 µM, a TGI (SK-MEL-2 melanoma) of 37.4 µM and a TGI (MCF7 breast) of 53.9 µM. It also gave a TGI (OVCAR-8 ovarian) of 48.8 µM, a TGI (M14 melanoma) of 52.8 µM and a TGI (SK-OV-3 ovarian) greater than 100 µM. It also gave a TGI (KM12 colon) of 67.4 µM, a TGI (A498 renal) of 61.8 µM and a TGI (PC-3 prostate) of 54.2 µM. It also gave a TGI (OVCAR-5 ovarian) of 44.7 µM, a TGI (MDA-MB-231 breast) greater than 100 µM and a TGI (SW-620 colon) of 45.6 µM. The TGI (UACC-62 melanoma) was 53.1 µM, the TGI (SNB-75 CNS) was 73.7 µM and the TGI (SK-MEL-28 melanoma) was 43 µM. For the same compound, the TGI (SF-268 CNS) was greater than 100 µM, the TGI (A549 NSCLC) was greater than 100 µM and the TGI (786-0 renal) was 77.4 µM. It also gave a TGI (U251 CNS) of 39.4 µM, a TGI (NCI-H226 lung) of 66.8 µM and a TGI (CAKI-1 renal) greater than 100 µM. For the same compound, the TGI (MALME-3M melanoma) was 53.4 µM, the TGI (MDA-MB-435) was 47.9 µM and the TGI (RPMI-8226 leukemia) was 34.1 µM. For the same compound, the TGI (LOX IMVI melanoma) was 32.8 µM, the TGI (RXF 393 renal) was 40.3 µM and the TGI (ACHN renal) was greater than 100 µM. The TGI (K-562 leukemia) was greater than 100 µM, the TGI (NCI/ADR-RES ovarian) was 46 µM and the TGI (NCI-H23 lung) was 66.6 µM. The TGI (SF-539 CNS) was 42.7 µM, the TGI (T-47D breast) was greater than 100 µM and the TGI (OVCAR-4 ovarian) was 61 µM. The TGI (OVCAR-3 ovarian) was 44 µM, the TGI (SK-MEL-5 melanoma) was 28.9 µM and the TGI (EKVX NSCLC) was 44.1 µM. It also gave a TGI (HL-60(TB) leukemia) of 48.8 µM, a TGI (SF-295 CNS) of 57.2 µM and a TGI (SN12C renal) of 44.4 µM. The TGI (COLO 205 colon) was 32.9 µM, the TGI (CCRF-CEM leukemia) was 38.4 µM and the TGI (IGROV1 ovarian) was 70.4 µM. For the same compound, the TGI (HT29 colon) was 38.3 µM, the TGI (HOP-62 NSCLC) was 44.1 µM and the TGI (MOLT-4 leukemia) was 65.5 µM. For the same compound, the TGI (UACC-257 melanoma) was 40.2 µM and the TGI (BT-549 breast) was 45.8 µM.
`CN(C)CCNc1ccc(NCC[N+](C)(C)Cc2ccc([N+](=O)[O-])cc2)c2c1C(=O)c1ccccc1C2=O` gave a TGI (TK-10 renal) greater than 25 µM, a TGI (SR leukemia) greater than 25 µM and a TGI (HCT-116 colon) greater than 25 µM. The TGI (UO-31 renal) was greater than 25 µM, the TGI (HS 578T breast) was greater than 25 µM and the TGI (MDA-N) was greater than 25 µM. It also gave a TGI (NCI-H522 lung) greater than 25 µM, a TGI (DU-145 prostate) greater than 25 µM and a TGI (SK-MEL-2 melanoma) greater than 25 µM. It also gave a TGI (MCF7 breast) greater than 25 µM, a TGI (OVCAR-8 ovarian) greater than 25 µM and a TGI (M14 melanoma) greater than 25 µM. It also gave a TGI (SK-OV-3 ovarian) greater than 25 µM, a TGI (KM12 colon) greater than 25 µM and a TGI (A498 renal) greater than 25 µM. The TGI (PC-3 prostate) was greater than 25 µM, the TGI (OVCAR-5 ovarian) was greater than 25 µM and the TGI (MDA-MB-231 breast) was greater than 25 µM. The TGI (SW-620 colon) was greater than 25 µM, the TGI (UACC-62 melanoma) was greater than 25 µM and the TGI (SNB-75 CNS) was greater than 25 µM. The TGI (SK-MEL-28 melanoma) was greater than 25 µM, the TGI (SF-268 CNS) was greater than 25 µM and the TGI (A549 NSCLC) was greater than 25 µM. It also gave a TGI (786-0 renal) greater than 25 µM, a TGI (U251 CNS) greater than 25 µM and a TGI (NCI-H226 lung) greater than 25 µM. For the same compound, the TGI (CAKI-1 renal) was greater than 25 µM, the TGI (MALME-3M melanoma) was greater than 25 µM and the TGI (MDA-MB-435) was greater than 25 µM. For the same compound, the TGI (RPMI-8226 leukemia) was greater than 25 µM, the TGI (LOX IMVI melanoma) was greater than 25 µM and the TGI (RXF 393 renal) was greater than 25 µM. The TGI (HOP-92 NSCLC) was greater than 25 µM, the TGI (ACHN renal) was greater than 25 µM and the TGI (NCI/ADR-RES ovarian) was greater than 25 µM. It also gave a TGI (NCI-H23 lung) greater than 25 µM, a TGI (T-47D breast) greater than 25 µM and a TGI (OVCAR-3 ovarian) greater than 25 µM. It also gave a TGI (SK-MEL-5 melanoma) greater than 25 µM, a TGI (EKVX NSCLC) greater than 25 µM and a TGI (HL-60(TB) leukemia) of 13.6 µM. The TGI (SF-295 CNS) was greater than 25 µM, the TGI (SN12C renal) was greater than 25 µM and the TGI (COLO 205 colon) was greater than 25 µM. For the same compound, the TGI (IGROV1 ovarian) was greater than 25 µM, the TGI (HT29 colon) was greater than 25 µM and the TGI (HOP-62 NSCLC) was greater than 25 µM. For the same compound, the TGI (MOLT-4 leukemia) was greater than 25 µM, the TGI (UACC-257 melanoma) was greater than 25 µM and the TGI (BT-549 breast) was greater than 25 µM.
Work on `c1ccc2c(CC3NCCN3)cccc2c1` yielded a TGI (TK-10 renal) greater than 100 µM, a TGI (NCI-H460 lung) greater than 100 µM and a TGI (SR leukemia) greater than 100 µM. The TGI (HCT-116 colon) was greater than 100 µM, the TGI (SNB-19 CNS) was greater than 100 µM and the TGI (HCT-15 colon) was greater than 100 µM. It also gave a TGI (HS 578T breast) greater than 100 µM, a TGI (MDA-N) greater than 100 µM and a TGI (NCI-H522 lung) greater than 100 µM. For the same compound, the TGI (DU-145 prostate) was greater than 100 µM, the TGI (SK-MEL-2 melanoma) was greater than 100 µM and the TGI (MCF7 breast) was greater than 100 µM. For the same compound, the TGI (OVCAR-8 ovarian) was greater than 100 µM, the TGI (M14 melanoma) was greater than 100 µM and the TGI (SK-OV-3 ovarian) was greater than 100 µM. For the same compound, the TGI (KM12 colon) was greater than 100 µM, the TGI (A498 renal) was greater than 100 µM and the TGI (PC-3 prostate) was greater than 100 µM. It also gave a TGI (OVCAR-5 ovarian) greater than 100 µM, a TGI (MDA-MB-231 breast) greater than 100 µM and a TGI (SW-620 colon) greater than 100 µM. The TGI (UACC-62 melanoma) was greater than 100 µM, the TGI (SNB-75 CNS) was greater than 100 µM and the TGI (SK-MEL-28 melanoma) was greater than 100 µM. For the same compound, the TGI (SF-268 CNS) was greater than 100 µM, the TGI (A549 NSCLC) was greater than 100 µM and the TGI (786-0 renal) was greater than 100 µM. The TGI (U251 CNS) was greater than 100 µM, the TGI (NCI-H226 lung) was greater than 100 µM and the TGI (CAKI-1 renal) was greater than 100 µM. The TGI (MALME-3M melanoma) was greater than 100 µM, the TGI (MDA-MB-435) was greater than 100 µM and the TGI (RPMI-8226 leukemia) was greater than 100 µM. The TGI (LOX IMVI melanoma) was greater than 100 µM, the TGI (RXF 393 renal) was greater than 100 µM and the TGI (HOP-92 NSCLC) was greater than 100 µM. For the same compound, the TGI (ACHN renal) was greater than 100 µM, the TGI (K-562 leukemia) was greater than 100 µM and the TGI (NCI/ADR-RES ovarian) was greater than 100 µM. The TGI (NCI-H23 lung) was greater than 100 µM, the TGI (SF-539 CNS) was greater than 100 µM and the TGI (T-47D breast) was greater than 100 µM. The TGI (OVCAR-4 ovarian) was greater than 100 µM, the TGI (OVCAR-3 ovarian) was greater than 100 µM and the TGI (SK-MEL-5 melanoma) was greater than 100 µM. The TGI (EKVX NSCLC) was greater than 100 µM, the TGI (HL-60(TB) leukemia) was greater than 100 µM and the TGI (SF-295 CNS) was greater than 100 µM. For the same compound, the TGI (SN12C renal) was greater than 100 µM, the TGI (COLO 205 colon) was greater than 100 µM and the TGI (CCRF-CEM leukemia) was greater than 100 µM. For the same compound, the TGI (IGROV1 ovarian) was greater than 100 µM, the TGI (HT29 colon) was greater than 100 µM and the TGI (HOP-62 NSCLC) was greater than 100 µM. For the same compound, the TGI (MOLT-4 leukemia) was greater than 100 µM, the TGI (UACC-257 melanoma) was greater than 100 µM and the TGI (BT-549 breast) was greater than 100 µM.
